We go through 7 compounds from PubChem BioAssay AID1259407 (Chemical Carcinogenesis Research Information System (CCRIS), 2018).

Active and inactive are the calls of the source. The rule behind the calls is not given here.

This series concerns CCRIS mutagenicity, Ames/micronucleus/aberration tests. The experiment in a line: CCRIS mutagenicity studies.
Where [1] appears, read: Test System: AMES SALMONELLA TYPHIMURIUM, Strain/Indicator: TA98, Metabolic Activation: NONE, Method: PREINCUBATION
Setting [2] is: Test System: AMES SALMONELLA TYPHIMURIUM, Strain/Indicator: TA100, Metabolic Activation: NONE, Method: PREINCUBATION
[3] abbreviates: Test System: AMES SALMONELLA TYPHIMURIUM, Strain/Indicator: TA100, Metabolic Activation: RAT, LIVER, S-9, AROCLOR 1254 (10%), Method: PREINCUBATION
Where [4] appears, read: Test System: AMES SALMONELLA TYPHIMURIUM, Strain/Indicator: TA98, Metabolic Activation: NONE, Method: STANDARD PLATE.
[5] abbreviates: Test System: AMES SALMONELLA TYPHIMURIUM, Strain/Indicator: TA98, Metabolic Activation: RAT, LIVER, S-9, AROCLOR 1254, Method: STANDARD PLATE.
Setting [6] is: Test System: AMES SALMONELLA TYPHIMURIUM, Strain/Indicator: TA100, Metabolic Activation: NONE, Method: STANDARD PLATE.
Where [7] appears, read: Test System: AMES SALMONELLA TYPHIMURIUM, Strain/Indicator: TA100, Metabolic Activation: RAT, LIVER, S-9, AROCLOR 1254, Method: STANDARD PLATE.

`CCc1cc(C(N)=S)ccn1`: the mutagenic call was “inactive; negative; significant increase at 7 mm attributed to precipitation” (End Point: IN VITRO CHROMOSOMAL ABERRATIONS, Test System: CHO CELLS, Metabolic Activation: NONE); “inactive; negative” (Test System: AMES SALMONELLA TYPHIMURIUM, Strain/Indicator: TA97, Metabolic Activation: HAMSTER, LIVER, S-9, AROCLOR 1254 (10%), Method: PREINCUBATION); “inactive; negative” (Test System: AMES SALMONELLA TYPHIMURIUM, Strain/Indicator: TA97, Metabolic Activation: HAMSTER, LIVER, S-9, AROCLOR 1254 (30%), Method: PREINCUBATION); “inactive; negative” (Test System: AMES SALMONELLA TYPHIMURIUM, Strain/Indicator: TA97, Metabolic Activation: NONE, Method: PREINCUBATION); “inactive; negative” (Test System: AMES SALMONELLA TYPHIMURIUM, Strain/Indicator: TA97, Metabolic Activation: RAT, LIVER, S-9, AROCLOR 1254 (10%), Method: PREINCUBATION); “inactive; negative” (Test System: AMES SALMONELLA TYPHIMURIUM, Strain/Indicator: TA97, Metabolic Activation: RAT, LIVER, S-9, AROCLOR 1254 (30%), Method: PREINCUBATION). Moreover, the mutagenic call (Test System: AMES SALMONELLA TYPHIMURIUM, Strain/Indicator: TA98, Metabolic Activation: HAMSTER, LIVER, S-9, AROCLOR 1254 (10%), Method: PREINCUBATION) was “inactive; negative”; the mutagenic call (Test System: AMES SALMONELLA TYPHIMURIUM, Strain/Indicator: TA98, Metabolic Activation: HAMSTER, LIVER, S-9, AROCLOR 1254 (30%), Method: PREINCUBATION) is “inactive; negative”; the mutagenic call under setting [1] is “inactive; negative”; the mutagenic call (Test System: AMES SALMONELLA TYPHIMURIUM, Strain/Indicator: TA98, Metabolic Activation: RAT, LIVER, S-9, AROCLOR 1254 (10%), Method: PREINCUBATION) is “inactive; negative”; the mutagenic call (Test System: AMES SALMONELLA TYPHIMURIUM, Strain/Indicator: TA98, Metabolic Activation: RAT, LIVER, S-9, AROCLOR 1254 (30%), Method: PREINCUBATION) was “inactive; negative”; the mutagenic call (Test System: AMES SALMONELLA TYPHIMURIUM, Strain/Indicator: TA100, Metabolic Activation: HAMSTER, LIVER, S-9, AROCLOR 1254 (10%), Method: PREINCUBATION) is “inactive; negative”. Besides, the mutagenic call (Test System: AMES SALMONELLA TYPHIMURIUM, Strain/Indicator: TA100, Metabolic Activation: HAMSTER, LIVER, S-9, AROCLOR 1254 (30%), Method: PREINCUBATION) is “inactive; negative”; the mutagenic call under setting [2] is “inactive; negative”; the mutagenic call under setting [3] is “inactive; negative”; the mutagenic call (Test System: AMES SALMONELLA TYPHIMURIUM, Strain/Indicator: TA100, Metabolic Activation: RAT, LIVER, S-9, AROCLOR 1254 (30%), Method: PREINCUBATION) is “inactive; negative”; the mutagenic call (Test System: AMES SALMONELLA TYPHIMURIUM, Strain/Indicator: TA1535, Metabolic Activation: HAMSTER, LIVER, S-9, AROCLOR 1254 (10%), Method: PREINCUBATION) was “inactive; negative”; the mutagenic call (Test System: AMES SALMONELLA TYPHIMURIUM, Strain/Indicator: TA1535, Metabolic Activation: HAMSTER, LIVER, S-9, AROCLOR 1254 (30%), Method: PREINCUBATION) is “inactive; negative”. The mutagenic call is, setting by setting: (Test System: AMES SALMONELLA TYPHIMURIUM, Strain/Indicator: TA1535, Metabolic Activation: NONE, Method: PREINCUBATION) “inactive; negative”; (Test System: AMES SALMONELLA TYPHIMURIUM, Strain/Indicator: TA1535, Metabolic Activation: RAT, LIVER, S-9, AROCLOR 1254 (10%), Method: PREINCUBATION) “inactive; negative”; (Test System: AMES SALMONELLA TYPHIMURIUM, Strain/Indicator: TA1535, Metabolic Activation: RAT, LIVER, S-9, AROCLOR 1254 (30%), Method: PREINCUBATION) “inactive; negative”.

On to `CC1C=CC(=O)O1` (centres undefined), for which the mutagenic call was “inactive; negative” under setting [1]; “inactive; negative” (Test System: AMES SALMONELLA TYPHIMURIUM, Strain/Indicator: TA98, Metabolic Activation: RAT, LIVER, S-9, AROCLOR 1254, Method: PREINCUBATION); “inactive; negative” under setting [2]; “inactive; negative” (Test System: AMES SALMONELLA TYPHIMURIUM, Strain/Indicator: TA100, Metabolic Activation: RAT, LIVER, S-9, AROCLOR 1254, Method: PREINCUBATION); “inactive; negative” (Test System: AMES SALMONELLA TYPHIMURIUM, Strain/Indicator: TA102, Metabolic Activation: NONE, Method: PREINCUBATION); “inactive; negative” (Test System: AMES SALMONELLA TYPHIMURIUM, Strain/Indicator: TA102, Metabolic Activation: RAT, LIVER, S-9, AROCLOR 1254, Method: PREINCUBATION).

`CN(C)c1ccc(-c2ccc(N(C)C)cc2)cc1`: the mutagenic call under setting [1] was “inactive; negative”; the mutagenic call under setting [4] is “inactive; negative”; the mutagenic call (Test System: AMES SALMONELLA TYPHIMURIUM, Strain/Indicator: TA98, Metabolic Activation: RAT LIVER S-9, AROCLOR 1254, Method: PREINCUBATION) is “active; positive”; the mutagenic call under setting [5] is “active; positive”; the mutagenic call under setting [2] was “inactive; negative”; the mutagenic call under setting [6] is “inactive; negative”. In addition, the mutagenic call (Test System: AMES SALMONELLA TYPHIMURIUM, Strain/Indicator: TA100, Metabolic Activation: RAT LIVER S-9, AROCLOR 1254, Method: PREINCUBATION) is “inactive; negative” and the mutagenic call under setting [7] is “inactive; negative”.

For `C[C@]12CC[C@@H]3c4cc(O)c(O)cc4CC[C@H]3[C@@H]1CCC2=O`, the mutagenic call was “inactive; negative” (Test System: Ames Salmonella typhimurium, Strain/Indicator: TA98, Metabolic Activation: None, Method: Standard plate); “inactive; negative” (Test System: Ames Salmonella typhimurium, Strain/Indicator: TA98, Metabolic Activation: Rat, liver, S-9, Method: Standard plate); “inactive; negative” (Test System: Ames Salmonella typhimurium, Strain/Indicator: TA100, Metabolic Activation: None, Method: Standard plate); “inactive; negative” (Test System: Ames Salmonella typhimurium, Strain/Indicator: TA100, Metabolic Activation: Rat, liver, S-9, Method: Standard plate).

`ONc1ccc(I)cc1`: the mutagenic call (Test System: E. COLI, Strain/Indicator: WP2 UVRA, Metabolic Activation: NONE, Method: FLUCTUATION TEST) was “inactive; negative”.

With `CC(=O)N[C@@H](CS/C(Cl)=C(\Cl)C(Cl)=C(Cl)Cl)C(=O)O`, the mutagenic call under setting [2] was “inactive; negative”; the mutagenic call (Test System: AMES SALMONELLA TYPHIMURIUM, Strain/Indicator: TA100, Metabolic Activation: RAT, KIDNEY, CYTOSOL, Method: PREINCUBATION) is “active; positive”; the mutagenic call under setting [3] was “active; positive”.

As to `O=C1CCC2(O)c3c(ccc(O)c31)-c1ccc(O)c3c1C2C1OC1C3=O` (centres undefined), the mutagenic call by setting is: under setting [4], “active; positive”; under setting [5], “active; positive”; under setting [6], “active; positive”; under setting [7], “active; positive”; (Test System: AMES SALMONELLA TYPHIMURIUM, Strain/Indicator: TA1537, Metabolic Activation: NONE, Method: STANDARD PLATE) “active; positive”; (Test System: AMES SALMONELLA TYPHIMURIUM, Strain/Indicator: TA1537, Metabolic Activation: RAT, LIVER, S-9, AROCLOR 1254, Method: STANDARD PLATE) “active; positive”.
